According to article PMC3740138, “Bile acids induce apoptosis selectively in androgen-dependent and -independent prostate cancer cells” (PeerJ, 2013):

What was measured:
LNCaP cells [1] = experiment: Percentage of intact cells (Hoechst 33342 / propidium iodide counting), LNCaP; assay type: cell-based, human; conditions: for Concentrations decreasing cell viability / number of intact cells: 48 h, tested 10–500 µM; for Effect of caspase inhibitor on LCA-induced cell death: 24 h co-exposure, 40 µM LCA + 10 µM inhibitor
Experimental: (§1) For apoptotic and necrotic cell death measurements, LNCaP and PC-3 cells were seeded at densities of 1 × 10^5 and 0.5 × 10^5 cells/ml, respectively, in 24-well plates in 2% stripped-FBS. Cells were then treated with several concentrations of bile acids in the presence (LNCaP) or absence (PC-3) of 0.1 nM DHT. […] After a 15 min incubation at 37°C, cells were observed and counted under a Nikon Eclipse (TE-2000U) inverted fluorescent microscope at 20× magnification. […] To measure mitochondrial membrane potential (MMP), cells were treated with LCA for 1, 4 or 8 h, and tetramethylrhodamine ethyl ester (TMRE) was added to each well at a final concentration of 50 nM. TMRE is a cell permeable, positively charged dye that accumulates in active negatively charged mitochondria.
(§2) All experiments were performed in at least triplicate using cells after various passages and the data are presented as mean ± SEM. Statistically significant differences (p < 0.05) between various treatments and untreated cells were determined using a two-tailed Student t-test with Bonferroni correction for multiple comparisons. IC50 values for inhibition of cell viability were calculated using a sigmoidal curve-fitting model of log-inhibitor concentration versus normalized inhibition response, with variable slope (GraphPad Prism v5.03, GraphPad Software, San Diego, CA).

PC-3 cells [2] = experiment: Percentage of intact cells (Hoechst 33342 / propidium iodide counting), PC-3; assay type: cell-based, human; conditions: for Concentrations decreasing cell viability / number of intact cells: PC-3, 48 h, tested 10–500 µM; for Effect of caspase inhibitor on LCA-induced cell death: PC-3, 24 h co-exposure, 50 µM LCA + 10 µM inhibitor
Experimental: as §1, §2

PC-3 cells [3] = test system: PC-3 cells; parameters: method as in Choi et al., 2003; conditions: ref Choi et al., 2003; cited from earlier work
PC-3 cells [4] = experiment: Western blot of apoptosis proteins, PC-3; assay type: cell-based, human; conditions: PC-3, 24 h
Experimental: (§3) Crude protein extracts (50 µg) were resolved by electrophoresis using 10% sodium dodecyl sulfate-polyacrylamide gels and then transferred to a PVDF Immobilon-P membrane (Bio-Rad, Mississauga, ON). Blots were blocked using 5% milk powder (Selection brand, Marché Jean-Talon, Montréal, QC) and incubated with antibodies as follows: 1:250 dilution for anti-caspase-3, 1:1000 for anti-cleaved PARP, 1:1000 for anti-Bcl-2, 1:1000 for anti-Bax, and 1:1000 for anti-Bid. Immunoreactive proteins were exposed to anti-rabbit horseradish peroxidise-conjugated secondary antibodies (Millipore) that were diluted 1:5000. Antigen-antibody complexes were detected using Immobilon ECL Western Chemiluminescent HRP Substrate (Millipore) and recorded with a Versadoc imaging system (Bio-Rad). Total protein content per well was determined using 1 × Amido Black staining solution (Sigma-Aldrich).

RWPE-1 cells = experiment: Percentage of intact cells (Hoechst 33342 / propidium iodide counting), RWPE-1; assay type: cell-based, human; conditions: RWPE-1, 48 h, 50 or 75 µM
LNCaP cells [5] = experiment: Western blot of apoptosis proteins, LNCaP; assay type: cell-based, human; conditions: 24 h, 25–75 µM
Experimental: as §3

caspase-8 [6] = experiment: Caspase-8 activity (Ac-IETD-AFC cleavage) in PC-3 cell extracts; assay type: cell-based, human; conditions: PC-3, 24 h, 25–75 µM
Experimental: (§4) PC-3 and LNCaP cells were seeded in 6-well plates at densities of 400000 or 750000 cells per well, respectively, in 0.5 ml culture medium containing 2% stripped FBS and 24 h later they were exposed to various concentrations of LCA in fresh medium for another 24 h. Proteins were then extracted from harvested cells using 1× RIPA buffer (Millipore, Billerica, MA) containing 1× protease inhibitor cocktail, centrifuged at 13,000 g for 5 min at 4°C to remove cell debris, and frozen at −80°C overnight. Protein concentrations were then quantified using a BCA protein detection kit (Thermo Scientific, Waltham, MA). Caspase activities were determined using fluorogenic caspase substrates selective for either caspase-3 (5 µM Ac-DEVD-AFC), caspase-9 (10 µM Ac-LEHD-AFC) or caspase-8 (10 µM Ac-IETD-AFC) in 10 µg of extracted protein suspended in caspase reaction buffer (20 mM PIPES at pH 7.2, 30 mM NaCl, 10 mM DTT, 1 mM EDTA, 0.1% CHAPS, 10% sucrose). The time-dependent release of 7-amino-4-trifluoromethyl coumarin (AFC) was measured using a SpectroMax M5 microplate reader (Molecular Devices, Sunnydale, CA) at an excitation wavelength of 400 nm and an emission wavelength of 505 nm. Measurements were recorded at 2 min intervals for 90 min. A standard curve of AFC fluorescence was used to calculate the amount of AFC released (in picomoles) during each reaction.

caspase-9 [7] = experiment: Caspase-9 activity (Ac-LEHD-AFC cleavage) in PC-3 cell extracts; assay type: cell-based, human; conditions: PC-3, 24 h, 25–75 µM
Experimental: as §4

caspase-9 [8] = experiment: Caspase-9 activity (Ac-LEHD-AFC cleavage) in LNCaP cell extracts; assay type: cell-based, human; conditions: 24 h, 25–75 µM
Experimental: as §4

caspase-3 [9] = experiment: Caspase-3 activity (Ac-DEVD-AFC cleavage) in LNCaP cell extracts; assay type: cell-based, human; conditions: 24 h, 25–75 µM
Experimental: as §4

PC-3 cells [10] = experiment: Mitochondrial membrane potential (TMRE), PC-3; assay type: cell-based, human; conditions: PC-3, 75 µM, as early as after 1 h
[11] = test system: LNCaP human prostate cancer cells; experiment: Extra/intracellular distribution by mass spectrometry, LNCaP; assay type: in vitro ADME; conditions: for % of compound recovered, Cells / % of compound recovered, Medium: LNCaP, 24 h, mean ± SD
Experimental: (§5) Mass spectrometry-based analysis of LCA and UDCA was performed as previously reported ([Bourque & Titorenko, 2009]). […] The extracted lipids were dried under nitrogen and resuspended in chloroform. Immediately prior to injection the extracted lipids were combined with a 2:1 methanol:chloroform mixture supplemented with 0.1% (v/v) ammonium hydroxide. The sample was injected directly into a Thermo Orbitrap Velos equipped with a HESI-II ion source (Thermo Scientific, Waltham, MA, USA) at a flow rate of 5 µl/min. Spectra were obtained in negative-ion mode. The source voltage was set to 4.0 kV, a capillary temperature of 275°C, a sheath gas flow of 5 (arbitrary units) and an auxiliary gas flow of 1 (arbitrary units). Acquired spectra were exported from Xcalibur software (Thermo Scientific) and then deconvoluted and deisotoped using Excel macros.

[12] = test system: PC-3 human prostate cancer cells; experiment: Extra/intracellular distribution by mass spectrometry, PC-3; assay type: in vitro ADME; conditions: for % of compound recovered, Cells / % of compound recovered, Medium: 24 h, mean ± SD
Experimental: as §5

caspase-3 [13] = experiment: Caspase-3 activity (Ac-DEVD-AFC cleavage) in PC-3 cell extracts; assay type: cell-based, human; conditions: PC-3, 24 h, 25–75 µM
Experimental: as §4

caspase-8 [14] = experiment: Caspase-8 activity (Ac-IETD-AFC cleavage) in LNCaP cell extracts; assay type: cell-based, human; conditions: 24 h, 25–75 µM
Experimental: as §4

LNCaP cells [15] = experiment: DHT-stimulated LNCaP cell proliferation (real-time impedance, E-plates); assay type: cell-based, human

C[C@H](CCC(=O)O)[C@H]1CC[C@H]2[C@@H]3[C@H](O)C[C@@H]4C[C@H](O)CC[C@]4(C)[C@H]3C[C@H](O)[C@]12C [CA, cholic acid]
Concentrations decreasing cell viability / number of intact cells (LNCaP cells [1]): > 500 µM | Concentrations decreasing cell viability / number of intact cells (PC-3 cells [2]): > 500 µM

C[C@H](CCC(=O)O)[C@H]1CC[C@H]2[C@@H]3[C@H](O)C[C@@H]4C[C@H](O)CC[C@]4(C)[C@H]3CC[C@]12C [CDCA, chenodeoxycholic acid]
Concentrations decreasing cell viability / number of intact cells (LNCaP cells [1]): above 100 µM | Concentrations decreasing cell viability / number of intact cells (PC-3 cells [2]): above 100 µM | Concentrations that did not result in significant cell death (PC-3 cells [3]): > 100 µM

C[C@H](CCC(=O)O)[C@H]1CC[C@H]2[C@@H]3CC[C@@H]4C[C@H](O)CC[C@]4(C)[C@H]3C[C@H](O)[C@]12C [DCA, deoxycholic acid]
Concentrations decreasing cell viability / number of intact cells (LNCaP cells [1]): above 100 µM | Concentrations decreasing cell viability / number of intact cells (PC-3 cells [2]): above 100 µM

C[C@H](CCC(=O)O)[C@H]1CC[C@H]2[C@@H]3C[C@H](O)[C@@H]4C[C@H](O)CC[C@]4(C)[C@H]3CC[C@]12C [HDCA, hyodeoxycholic acid]
Concentrations decreasing cell viability / number of intact cells (LNCaP cells [1]): above 300 µM | Concentrations decreasing cell viability / number of intact cells (PC-3 cells [2]): above 300 µM

C[C@H](CCC(=O)O)[C@H]1CC[C@H]2[C@@H]3CC[C@@H]4C[C@H](O)CC[C@]4(C)[C@H]3CC[C@]12C [LCA, Lithocholic acid]
Levels of 89 kDa PARP fragment elevated (PC-3 cells [4]): not in PC-3 cells | Bcl-2 levels (PC-3 cells [4]; 25–75 µM): decreased levels | Effect on pro-apoptotic proteins Bax and Bid (PC-3 cells [4]; 25–75 µM): cleavage | Levels of cleaved, active 17 and 20 kDa caspase-3 subunits (PC-3 cells [4]; 25–75 µM): increased levels | Effect on viability of non-tumorigenic cells (RWPE-1 cells): without decreasing the viability | Effect on pro-apoptotic proteins Bax and Bid (LNCaP cells [5]): cleavage | Levels of 89 kDa PARP fragment (LNCaP cells [5]): significantly elevated | Levels of cleaved, active 17 and 20 kDa caspase-3 subunits (LNCaP cells [5]): increased levels | Levels of active caspase-8 (caspase-8 [6]): increased levels | Caspase-9 activity (caspase-9 [7]): statistically significant increases | Caspase-9 activity (caspase-9 [8]): statistically significant increases | IC50 (LNCaP cells [1]; Homo sapiens, 48 h treatment, with 0.1 nM DHT, read-out: IC50 for decrease in number of intact cells): 40.5 ± 0.07 µM | IC50 (PC-3 cells [2]; Homo sapiens, PC-3, 48 h treatment, read-out: IC50 for decrease in number of intact cells): 74.9 ± 0.25 µM | Catalytic activity of caspase-3 (caspase-3 [9]): increased | Change in mitochondrial membrane potential (MMP) (PC-3 cells [10]): marked decrease | % of nominal concentration present in extracellular medium ([11]; LNCaP cultures after 24 h): ≤ 98% | % of compound recovered, Cells ([11]; 25 µM): 2.72 ± 1.10% | % of compound recovered, Medium ([11]; 25 µM): 97.28 ± 1.10% | % of compound recovered, Cells ([11]; 50 µM): 5.85 ± 2.45% | % of compound recovered, Medium ([11]; 50 µM): 94.15 ± 2.45% | % of compound recovered, Cells ([12]; PC-3, 50 µM): 2.09 ± 0.05% | % of compound recovered, Medium ([12]; PC-3, 50 µM): 97.91 ± 0.05% | % of compound recovered, Cells ([12]; PC-3, 75 µM): 2.39 ± 1.93% | % of compound recovered, Medium ([12]; PC-3, 75 µM): 97.61 ± 1.93% | % of nominal concentration present in extracellular medium ([12]; PC-3 cultures after 24 h): ≤ 98% | Catalytic activity of caspase-3 (caspase-3 [13]): increased | Levels of active caspase-8 (caspase-8 [14]): increased levels | IC50 (LNCaP cells [15]; Homo sapiens, LNCaP, co-treated with 0.1 nM DHT, 72 h, read-out: IC50 for inhibition of proliferation of androgen-stimulated cells): 8.5 µM | Concentrations that inhibit proliferation of AD prostate cancer cells (LNCaP cells [15]; well below those needed to induce apoptosis): 2.5 to 10 µM

C[C@H](CCC(=O)O)[C@H]1CC[C@H]2[C@@H]3[C@@H](O)C[C@@H]4C[C@H](O)CC[C@]4(C)[C@H]3CC[C@]12C [UDCA, ursodeoxycholic acid, reference compound]
Concentrations decreasing cell viability / number of intact cells (LNCaP cells [1]): above 300 µM | Concentrations decreasing cell viability / number of intact cells (PC-3 cells [2]): above 300 µM | Concentrations that did not result in significant cell death (PC-3 cells [3]): > 100 µM | % of compound recovered, Cells ([11]; 25 µM): 9.60 ± 3.86% | % of compound recovered, Medium ([11]; 25 µM): 90.40 ± 3.86% | % of compound recovered, Cells ([11]; 50 µM): 4.23 ± 0.10% | % of compound recovered, Medium ([11]; 50 µM): 95.77 ± 0.10% | % of compound recovered, Cells ([12]; PC-3, 50 µM): 2.44 ± 0.17% | % of compound recovered, Medium ([12]; PC-3, 50 µM): 97.56 ± 0.17% | % of compound recovered, Cells ([12]; PC-3, 75 µM): 2.43 ± 0.67% | % of compound recovered, Medium ([12]; PC-3, 75 µM): 97.57 ± 0.67%

z-DEVD-fmk
Effect of caspase inhibitor on LCA-induced cell death (LNCaP cells [1]): partially inhibited | Effect of caspase inhibitor on LCA-induced cell death (PC-3 cells [2]): partially inhibited

z-IETD-fmk
Effect of caspase inhibitor on LCA-induced cell death (LNCaP cells [1]): alleviated | Effect of caspase inhibitor on LCA-induced cell death (PC-3 cells [2]): alleviated
